Test results from PubChem BioAssay AID2060505 (Molecular Pharmacology Branch, DTP, NCI, 2025).

System: 633275-114-R-J1-PDC complex spheroids, viability
Assay: Anticancer human tumor 633275-114-R-J1-PDC patient-derived endometrial adenocarcinoma cell line growth inhibition [GQUAD]
Settings: for IC50: curve of first compound; for viability, T/C: stronger effect = lower value
Source text: DNA G-quadruplex Stabilizer Agents in Combinations in Complex Spheroids
A high-throughput screen of multi-cell type tumor spheroids was designed to identify active combinations of DNA G-quadruplex stabilizer agents and targeted small molecules. Complex spheroids include a stromal component modeled by human endothelial cells (HUVEC) and fibroblasts modeled by human mesenchymal stem cells (MSCs). The concentration ranges selected for each drug and investigational agent were based upon clinically achievable concentrations if the clinical Cmax of the agent was known.
Compounds. The drugs and investigational agents: pidnarulex (CX-5461; NSC782164), APTO-253 (NSC789042), BRACO-19 (NSC847499), peposertib (NSC802822), ceralasertib (NSC780249), elimusertib (NSC800525), camonsertib (NSC841442), AZD-1390 (NSC803789), olaparib (NSC753686), talazoparib (NSC767125), ART-558 (NSC835418), sotorasib (NSC818433), MRTX-1133 (NSC836407), SN-38 (NSC673596), topotecan (NSC609699), etoposide (NSC141540), doxorubicin (NSC123127), gemcitabine (NSC613327), 5-fluorouracil (NSC19893), paclitaxel (NSC125973), vemurafenib (NSC761431), panobinostat (NSC761190), R-306465 (JNJ-16241199; NSC773264), adavosertib (NSC754352), TP-3654 (NSC805149), carboplatin (NSC241240), KSQ-4279 (NSC840948), and staurosporine (NSC755774) were obtained from the National Cancer Institute (NCI) Developmental Therapeutics Program Chemical Repository (34). The FDA-approved anticancer drug set is available from the NCI Developmental Therapeutics Program. […] The stock solutions were prepared in dimethyl sulfoxide (DMSO, Sigma-Aldrich, St. Louis, MO, cat. D2650) at 800-fold the tested concentration and stored at -70 degrees C prior to their use. All drugs and investigational agents were tested over a range starting from a high concentration at or near the clinical Cmax and decreasing in half-log increments. If the clinical Cmax for an agent had not been determined, the highest concentration tested was 10 microM.
2.3 Cell Culture. All cells were maintained in an incubator at 37 degrees C and 5% CO2 with 95% humidity. The PDC lines were cultured according to standard operating procedures established by the NCI PDMR. All PDCs were thawed and cultured in Matrigel-coated flasks prepared with a working solution of 1X Ham's F-12 nutrient mix, without supplementation (Invitrogen, cat. 11765054), 100 U/mL penicillin-streptomycin (Invitrogen, cat. 15140122), and 2.5% Matrigel (Corning Inc., cat. 354248) for the first three passages. The 857933-349-R-J2-PDC line was cultured in 6C/Colon 1B media, which includes advanced DMEM/F-12 (Thermo Fisher Scientific, cat. 12634028), 10 mM HEPES (Thermo Fisher Scientific, cat. 15630080), 1X GlutaMAX supplement (Thermo Fisher Scientific, cat. 35050061), 0.1 mg/mL primocin (InvivoGen, cat. ant-pm-2), 10% defined fetal bovine serum, heat inactivated (HyClone Laboratories Inc., cat. SH30070.03HI), 50% L-WRN conditioned media (ATCC, cat. CRL-3276), 1.25 mM N-Acetyl-L-cysteine (Sigma-Aldrich, cat. A9165), 10 mM nicotinamide (Sigma-Aldrich, cat. N0636), 1X B-27 supplement (Thermo Fisher Scientific, cat. 17504044), 1X N-2 supplement (Thermo Fisher Scientific, cat. 17502048), 10 microM Y-27632 dihydrochloride (Tocris Bioscience, cat. 1254), and 50 ng/mL human EGF recombinant protein (Thermo Fisher Scientific, cat. PHG0311). The 485176-168-R4-J1-PDC line was cultured in Panc media, which includes all 6C/Colon 1B media components plus 100 ng/mL human FGF-10 (Thermo Fisher Scientific, cat. 100-26), 500 nM SB-431542 (Selleckchem, cat. S1067), and gastrin (Tocris, cat. 3006).
[…]
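Note: spheroids exposed to the agents for seven days.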
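Throughout, for viability, T/C: percent of DMSO vehicle control viability which is 100%.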

Question: With `CC(=O)O[C@H]1C(=O)[C@@]2(C)[C@H]([C@H](OC(=O)c3ccccc3)[C@]3(O)C[C@H](OC(=O)[C@H](O)[C@@H](NC(=O)c4ccccc4)c4ccccc4)C(C)=C1C3(C)C)[C@]1(OC(C)=O)CO[C@@H]1C[C@@H]2O` + Cc1cnc(CNC(=O)c2c(=O)c3ccc(N4CCCN(C)CC4)nc3n3c2sc2ccccc23)cn1 as the compound, how does the IC50 (second compound 0.0316 µM) read?
Answer: The IC50 was less than 31.6 nM.

Question: What about the IC50 (second compound 0.1 µM) of the same compound?
Answer: Its IC50 is less than 31.6 nM.

Question: And the IC50 (second compound 0.316 µM)?
Answer: The IC50 was less than 31.6 nM.

Question: What about the IC50 (second compound 1 µM) of the same compound?
Answer: The IC50 was less than 31.6 nM.

Question: And the IC50 (second compound 3.16 µM)?
Answer: Its IC50 is less than 31.6 nM.

Question: And the IC50 (second compound 10 µM)?
Answer: The IC50 was less than 31.6 nM.

Question: What about the viability, T/C (second compound 0.0316 µM, first compound 0.0316 µM) of the same compound?
Answer: The viability, T/C was 43.8%.

Question: And the viability, T/C (second compound 0.0316 µM, first compound 0.1 µM)?
Answer: The viability, T/C was 30.5%.

Question: What about the viability, T/C (second compound 0.0316 µM, first compound 0.316 µM) of the same compound?
Answer: Its viability, T/C is 27.4%.

Question: What about the viability, T/C (second compound 0.0316 µM, first compound 1 µM) of the same compound?
Answer: Its viability, T/C is 25.1%.

Question: And the viability, T/C (second compound 0.0316 µM, first compound 3.16 µM)?
Answer: Its viability, T/C is 24.9%.

Question: What about the viability, T/C (second compound 0.0316 µM, first compound 10 µM) of the same compound?
Answer: The viability, T/C was 25.6%.

Question: What about the viability, T/C (second compound 0.1 µM, first compound 0.0316 µM) of the same compound?
Answer: The viability, T/C was 42.3%.

Question: What about the viability, T/C (second compound 0.1 µM, first compound 0.1 µM) of the same compound?
Answer: Its viability, T/C is 37.3%.

Question: And the viability, T/C (second compound 0.1 µM, first compound 0.316 µM)?
Answer: The viability, T/C was 32.8%.

Question: What about the viability, T/C (second compound 0.1 µM, first compound 1 µM) of the same compound?
Answer: The viability, T/C was 35.2%.

Question: What about the viability, T/C (second compound 0.1 µM, first compound 3.16 µM) of the same compound?
Answer: The viability, T/C was 33.9%.

Question: What about the viability, T/C (second compound 0.1 µM, first compound 10 µM) of the same compound?
Answer: The viability, T/C was 34.1%.

Question: What about the viability, T/C (second compound 0.316 µM, first compound 0.0316 µM) of the same compound?
Answer: The viability, T/C was 43.5%.

Question: And the viability, T/C (second compound 0.316 µM, first compound 0.1 µM)?
Answer: Its viability, T/C is 39.3%.

Question: And the viability, T/C (second compound 0.316 µM, first compound 0.316 µM)?
Answer: The viability, T/C was 41.7%.

Question: And the viability, T/C (second compound 0.316 µM, first compound 1 µM)?
Answer: Its viability, T/C is 38.2%.

Question: And the viability, T/C (second compound 0.316 µM, first compound 3.16 µM)?
Answer: The viability, T/C was 35.8%.

Question: What about the viability, T/C (second compound 0.316 µM, first compound 10 µM) of the same compound?
Answer: Its viability, T/C is 35.3%.

Question: And the viability, T/C (second compound 1 µM, first compound 0.0316 µM)?
Answer: Its viability, T/C is 38.5%.

Question: And the viability, T/C (second compound 1 µM, first compound 0.1 µM)?
Answer: Its viability, T/C is 37.4%.

Question: What about the viability, T/C (second compound 1 µM, first compound 0.316 µM) of the same compound?
Answer: Its viability, T/C is 39.3%.

Question: And the viability, T/C (second compound 1 µM, first compound 1 µM)?
Answer: Its viability, T/C is 43.2%.

Question: And the viability, T/C (second compound 1 µM, first compound 3.16 µM)?
Answer: Its viability, T/C is 35.1%.

Question: And the viability, T/C (second compound 1 µM, first compound 10 µM)?
Answer: The viability, T/C was 36.2%.

Question: What about the viability, T/C (second compound 3.16 µM, first compound 0.0316 µM) of the same compound?
Answer: The viability, T/C was 39%.

Question: What about the viability, T/C (second compound 3.16 µM, first compound 0.1 µM) of the same compound?
Answer: The viability, T/C was 35%.

Question: And the viability, T/C (second compound 3.16 µM, first compound 0.316 µM)?
Answer: Its viability, T/C is 35.8%.

Question: And the viability, T/C (second compound 3.16 µM, first compound 1 µM)?
Answer: Its viability, T/C is 39.7%.

Question: And the viability, T/C (second compound 3.16 µM, first compound 3.16 µM)?
Answer: The viability, T/C was 35.8%.

Question: What about the viability, T/C (second compound 3.16 µM, first compound 10 µM) of the same compound?
Answer: Its viability, T/C is 32.6%.

Question: And the viability, T/C (second compound 10 µM, first compound 0.0316 µM)?
Answer: Its viability, T/C is 31.1%.

Question: What about the viability, T/C (second compound 10 µM, first compound 0.1 µM) of the same compound?
Answer: Its viability, T/C is 28.7%.

Question: And the viability, T/C (second compound 10 µM, first compound 0.316 µM)?
Answer: The viability, T/C was 27.5%.

Question: And the viability, T/C (second compound 10 µM, first compound 1 µM)?
Answer: Its viability, T/C is 31.7%.

Question: And the viability, T/C (second compound 10 µM, first compound 3.16 µM)?
Answer: Its viability, T/C is 32.4%.

Question: What about the viability, T/C (second compound 10 µM, first compound 10 µM) of the same compound?
Answer: Its viability, T/C is 30.8%.
